One substance from US7741283B2, “Compositions and methods for inhibiting cell proliferation” (St. Louis University, priority 2003, dated 2010) can be followed below.

The assay deals with MEF cells. Kind of assay: Cell growth (cell number), MEF cells. Type of assay: cell-based, mouse. To be noted: IGFBP-3 up to 1 μg/ml. Here is the method:
FIG. 7 depicts the effect of TGF-β1 on DNA synthesis (A), cell growth (B) and PAI-1 expression (C) in MEF and PEA-13 cells. (A) Cells were treated with various concentrations of TGF-β1 as indicated. DNA synthesis was determined by measuring [methyl-^3H] thymidine incorporation into cellular DNA. The [methyl-^3H] thymidine incorporation in cells treated without TGF-β1 (100,861±3,720 and 103,262±6,722 cpm/well for MEF and PEA-13 cells, respectively) was taken as 0% inhibition. The negative values of inhibition indicate mitogenic activity. […] Each datapoint is the mean±S.D. of quadruplicate determinations. […] Data are representative of six similar experiments. (B) Cells were treated with various concentrations of TGF-β1 as indicated. The cell number was counted after a 4 day incubation. […] The negative values of the inhibition indicate the growth stimulatory activity. Each datapoint is the mean±S.D. of quadruplicate determinations. […] Data are representative of four similar experiments. (C) Cells were treated with various concentrations of TGF-β1 as indicated. The PAI-1 expression in these cells was determined by Northern blot analysis. […] The relative levels of the transcripts were quantified by a PhosphoImager. […]
Cells were plated at a density of 1-2×10^4 cells/dish in DMEM containing 1% fetal calf serum. The cell number was counted every day or after a 3-day incubation using a hematocytometer. […]

“IGFBP-3: human insulin-like growth factor binding protein-3 expressed in E. Coli”: the “Effect on cell growth” value is given as “did not appear to have a significant effect”.
